The source of these data is US11661426B2, “Imidazole-containing inhibitors of ALK2 kinase” (BioCryst Pharmaceuticals, Inc., priority 2017, dated 2023).

This assay deals with ALK2 (Homo sapiens (Human), UniProt Q04771). In words: ALK2 inhibition, LanthaScreen Eu Kinase Binding Assay (ThermoFisher Scientific / Life Technologies). To be noted: read-out: Measured Ki (IC50) Value for Compounds: IC50. The protocol: Biochemical assays to measure the inhibitory effects of the compounds were performed by ThermoFisher Scientific (Life Technologies). ALK2 inhibition was tested using LanthaScreen™ Eu Kinase Binding Assay screening protocol.
Chain of ALK2 (Q04771 21-509): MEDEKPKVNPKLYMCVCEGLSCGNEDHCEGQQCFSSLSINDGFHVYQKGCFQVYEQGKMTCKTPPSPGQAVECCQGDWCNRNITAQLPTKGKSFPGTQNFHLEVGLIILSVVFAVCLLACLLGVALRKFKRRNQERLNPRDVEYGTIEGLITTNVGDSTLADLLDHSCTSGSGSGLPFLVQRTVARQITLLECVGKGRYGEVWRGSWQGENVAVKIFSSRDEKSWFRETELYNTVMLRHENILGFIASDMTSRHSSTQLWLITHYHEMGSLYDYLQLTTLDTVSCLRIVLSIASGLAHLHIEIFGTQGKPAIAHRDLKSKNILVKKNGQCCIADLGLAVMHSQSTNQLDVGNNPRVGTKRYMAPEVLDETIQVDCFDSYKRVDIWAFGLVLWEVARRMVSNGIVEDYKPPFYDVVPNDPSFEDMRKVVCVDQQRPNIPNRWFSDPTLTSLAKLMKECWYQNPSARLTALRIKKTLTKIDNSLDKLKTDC
For the compound `COc1cc(-n2cnc(Nc3nc(N4CCC[C@H]4CO)nn4c(CN5CCOCC5)ccc34)c2)cc(OC)c1OC` [Compound 111b, (S)-(1-(7-(morpholinomethyl)-4-((1-(3,4,5-trimethoxyphenyl)-1H-imidazol-4-yl)amino)pyrrolo[2,1-f][1,2,4]triazin-2-yl)pyrrolidin-2-yl)methanol], the IC50 is less than 0.1 µM.

As to `COc1cc(-n2cnc(Nc3nc(N4CCC[C@H]4CO)nn4c(CN5CCN(C)CC5)ccc34)c2)cc(OC)c1OC` [Compound 112b, (S)-(1-(7-((4-methylpiperazin-1-yl)methyl)-4-((1-(3,4,5-trimethoxyphenyl)-1H-imidazol-4-yl)amino)pyrrolo[2,1-f][1,2,4]triazin-2-yl)pyrrolidin-2-yl)methanol], the IC50 was less than 0.1 µM.

Regarding `COc1cc(-n2cnc(Nc3nc(N4CCC[C@H]4CO)nc4sc(CN5CCCCC5)cc34)c2)cc(OC)c1OC` [Compound 113b, (S)-(1-(6-(piperidin-1-ylmethyl)-4-((1-(3,4,5-trimethoxyphenyl)-1H-imidazol-4-yl)amino)thieno[2,3-d]pyrimidin-2-yl)pyrrolidin-2-yl)methanol], the IC50 was less than 0.1 µM.

On to `COCCN1CCN(Cc2ccc3c(Nc4cn(-c5cc(OC)c(OC)c(OC)c5)cn4)nc(N4CCC[C@H]4CO)nn23)CC1` [Compound 114b, (S)-(1-(7-((4-(2-methoxyethyl)piperazin-1-yl)methyl)-4-((1-(3,4,5-trimethoxyphenyl)-1H-imidazol-4-yl)amino)pyrrolo[2,1-f][1,2,4]triazin-2-yl)pyrrolidin-2-yl)methanol], for which the IC50 is less than 0.1 µM.

For `COc1cc(-n2cnc(Nc3nc(N4CCC[C@H]4CO)c4ccccc4n3)c2)cc(OC)c1OC` [Compound 115b, (S)-(1-(2-((1-(3,4,5-trimethoxyphenyl)-1H-imidazol-4-yl)amino)quinazolin-4-yl)pyrrolidin-2-yl)methanol], the IC50 was less than 0.1 µM.

As for `N#Cc1ccc(-n2cnc(Nc3nc(N4CCC[C@H]4CO)nn4cccc34)c2)cc1` [Compound 116c, (S)-4-(4-((2-(2-(hydroxymethyl)pyrrolidin-1-yl)pyrrolo[2,1-f][1,2,4]triazin-4-yl)amino)-1H-imidazol-1-yl)benzonitrile], the IC50 fell in the range of 0.1 to 1 µM.

Consider `COc1cc(-n2cnc(Nc3nc(N4CCC[C@H]4C(N)=O)nn4c(CN5CCCCC5)ccc34)c2)cc(OC)c1OC` [Compound 117a, (S)-1-(7-(piperidin-1-ylmethyl)-4-((1-(3,4,5-trimethoxyphenyl)-1H-imidazol-4-yl)amino)pyrrolo[2,1-f][1,2,4]triazin-2-yl)pyrrolidine-2-carboxamide], for which the IC50 is less than 0.1 µM.

Regarding `COc1cc(-n2cnc(Nc3nc(N4CCC[C@H]4C(N)=O)nn4c(CN5CCC[C@H]5C(N)=O)ccc34)c2)cc(OC)c1OC` [Compound 118b, (S)-1-((2-((S)-2-carbamoylpyrrolidin-1-yl)-4-((1-(3,4,5-trimethoxyphenyl)-1H-imidazol-4-yl)amino)pyrrolo[2,1-f][1,2,4]triazin-7-yl)methyl)pyrrolidine-2-carboxamide], the IC50 was less than 0.1 µM.

Regarding `N#Cc1cccc(-n2cnc(Nc3nc(N4CCC[C@H]4CO)nn4cccc34)c2)c1` [Compound 119c, (S)-3-(4-((2-(2-(hydroxymethyl)pyrrolidin-1-yl)pyrrolo[2,1-f][1,2,4]triazin-4-yl)amino)-1H-imidazol-1-yl)benzonitrile], the IC50 is less than 0.1 µM.

For the compound `COc1cc(-n2cnc(Nc3nc(N4CCC[C@H]4CO)nn4c(CNCC5CC5)ccc34)c2)cc(OC)c1OC` [Compound 120a, (S)-(1-(7-(((cyclopropylmethyl)amino)methyl)-4-((1-(3,4,5-trimethoxyphenyl)-1H-imidazol-4-yl)amino)pyrrolo[2,1-f][1,2,4]triazin-2-yl)pyrrolidin-2-yl)methanol], the IC50 was less than 0.1 µM.

Regarding `COc1cc(-n2cnc(Nc3nc(N4CCC[C@H]4CO)nn4c(CN5CCN(C(=O)OC(C)(C)C)CC5)ccc34)c2)cc(OC)c1OC` [Compound 121b, (S)-tert-butyl 4-((2-(2-(hydroxymethyl)pyrrolidin-1-yl)-4-((1-(3,4,5-trimethoxyphenyl)-1H-imidazol-4-yl)amino)pyrrolo[2,1-f][1,2,4]triazin-7-yl)methyl)piperazine-1-carboxylate], the IC50 was less than 0.1 µM.

For `COc1cc(-n2cnc(Nc3nc(N4CCC[C@H]4CO)nn4c(CN5CCNCC5)ccc34)c2)cc(OC)c1OC` [Compound 122a, (S)-(1-(7-(piperazin-1-ylmethyl)-4-((1-(3,4,5-trimethoxyphenyl)-1H-imidazol-4-yl)amino)pyrrolo[2,1-f][1,2,4]triazin-2-yl)pyrrolidin-2-yl)methanol], the IC50 was less than 0.1 µM.

Take `CC(=O)c1cc(-n2cnc(Nc3nc(N4CCC[C@H]4CO)nn4cccc34)c2)ccc1O` [Compound 123c, (S)-1-(2-hydroxy-5-(4-((2-(2-(hydroxymethyl)pyrrolidin-1-yl)pyrrolo[2,1-f][1,2,4]triazin-4-yl)amino)-1H-imidazol-1-yl)phenyl)ethanone]: the IC50 is less than 0.1 µM.

Take `COc1cc(C(N)=O)cc(-n2cnc(Nc3nc(N4CCC[C@H]4CO)nn4cccc34)c2)c1` [Compound 125c, (S)-3-(4-((2-(2-(hydroxymethyl)pyrrolidin-1-yl)pyrrolo[2,1-f][1,2,4]triazin-4-yl)amino)-1H-imidazol-1-yl)-5-methoxybenzamide]: the IC50 is less than 0.1 µM.

As for `COc1cc(-n2cnc(Nc3nc(N4CCC[C@H]4C(N)=O)nn4c(C(=O)N5CCCCC5)ccc34)c2)cc(OC)c1OC` [Compound 126c, (S)-1-(7-(piperidine-1-carbonyl)-4-((1-(3,4,5-trimethoxyphenyl)-1H-imidazol-4-yl)amino)pyrrolo[2,1-f][1,2,4]triazin-2-yl)pyrrolidine-2-carboxamide], the IC50 is less than 0.1 µM.

Regarding `N#Cc1cc(O)cc(-n2cnc(Nc3nc(N4CCC[C@H]4CO)nn4cccc34)c2)c1` [Compound 127b, (S)-3-hydroxy-5-(4-((2-(2-(hydroxymethyl)pyrrolidin-1-yl)pyrrolo[2,1-f][1,2,4]triazin-4-yl)amino)-1H-imidazol-1-yl)benzonitrile], the IC50 is less than 0.1 µM.

`OC[C@@H]1CCCN1c1nc(Nc2cn(-c3ccc(F)c(F)c3)cn2)c2cccn2n1` [Compound 128c, (S)-(1-(4-((1-(3,4-difluorophenyl)-1H-imidazol-4-yl)amino)pyrrolo[2,1-f][1,2,4]triazin-2-yl)pyrrolidin-2-yl)methanol]: the IC50 was less than 0.1 µM.

In the case of `COc1cc(-n2cnc(Nc3nc(N4CCC[C@H]4CO)nn4c(CNC(C)C)ccc34)c2)cc(OC)c1OC` [Compound 129b, (S)-(1-(7-((isopropylamino)methyl)-4-((1-(3,4,5-trimethoxyphenyl)-1H-imidazol-4-yl)amino)pyrrolo[2,1-f][1,2,4]triazin-2-yl)pyrrolidin-2-yl)methanol], the IC50 is less than 0.1 µM.

Regarding `COc1cc(-n2cnc(Nc3nc(N4CCC[C@H]4C(N)=O)nc4ccccc34)c2)cc(OC)c1OC` [Compound 130a, (S)-1-(4-((1-(3,4,5-trimethoxyphenyl)-1H-imidazol-4-yl)amino)quinazolin-2-yl)pyrrolidine-2-carboxamide], the IC50 is less than 0.1 µM.

With `COc1cc(OC)cc(-n2cnc(Nc3nc(N4CCC[C@H]4C(N)=O)nn4cccc34)c2)c1` [Compound 131a, (S)-1-(4-((1-(3,5-dimethoxyphenyl)-1H-imidazol-4-yl)amino)pyrrolo[2,1-f][1,2,4]triazin-2-yl)pyrrolidine-2-carboxamide], the IC50 was less than 0.1 µM.

For `COc1cc(-n2cnc(Nc3nc(N4CCC[C@H]4C(N)=O)c4ccsc4n3)c2)cc(OC)c1OC` [Compound 132b, (S)-1-(2-((1-(3,4,5-trimethoxyphenyl)-1H-imidazol-4-yl)amino)thieno[2,3-d]pyrimidin-4-yl)pyrrolidine-2-carboxamide], the IC50 was less than 0.1 µM.

Take `COc1cc(-n2cnc(Nc3nc(N4CCC[C@H]4CO)c4ccsc4n3)c2)cc(OC)c1OC` [Compound 133b, (S)-(1-(2-((1-(3,4,5-trimethoxyphenyl)-1H-imidazol-4-yl)amino)thieno[2,3-d]pyrimidin-4-yl)pyrrolidin-2-yl)methanol]: the IC50 is less than 0.1 µM.

In the case of `COc1cc(-n2cnc(Nc3nc(-c4cccc(CO)c4)nn4cccc34)c2)cc(OC)c1OC` [Compound 134a, (3-(4-((1-(3,4,5-trimethoxyphenyl)-1H-imidazol-4-yl)amino)pyrrolo[2,1-f][1,2,4]triazin-2-yl)phenyl)methanol], the IC50 was less than 0.1 µM.

Take `COc1cc(-n2cnc(Nc3nc(-c4ccccc4C(N)=O)nn4cccc34)c2)cc(OC)c1OC` [Compound 135a, 2-(4-((1-(3,4,5-trimethoxyphenyl)-1H-imidazol-4-yl)amino)pyrrolo[2,1-f][1,2,4]triazin-2-yl)benzamide]: the IC50 is less than 0.1 µM.

Turning to `COc1cc(-n2cnc(Nc3nc(-c4cccc(C(N)=O)c4)nn4cccc34)c2)cc(OC)c1OC` [Compound 136a, 3-(4-((1-(3,4,5-trimethoxyphenyl)-1H-imidazol-4-yl)amino)pyrrolo[2,1-f][1,2,4]triazin-2-yl)benzamide], the IC50 was less than 0.1 µM.

For the compound `COc1cc(-n2cnc(Nc3nc(-c4ccccc4CO)nn4cccc34)c2)cc(OC)c1OC` [Compound 137a, (2-(4-((1-(3,4,5-trimethoxyphenyl)-1H-imidazol-4-yl)amino)pyrrolo[2,1-f][1,2,4]triazin-2-yl)phenyl)methanol], the IC50 was less than 0.1 µM.

For `COc1cc(-n2cnc(Nc3nc(N4CCC[C@H]4CO)c4sccc4n3)c2)cc(OC)c1OC` [Compound 138b, (S)-(1-(2-((1-(3,4,5-trimethoxyphenyl)-1H-imidazol-4-yl)amino)thieno[3,2-d]pyrimidin-4-yl)pyrrolidin-2-yl)methanol], the IC50 was less than 0.1 µM.

With `COc1cc(-n2cnc(Nc3nc(N4CCC[C@H]4C(N)=O)c4sccc4n3)c2)cc(OC)c1OC` [Compound 139b, (S)-1-(2-((1-(3,4,5-trimethoxyphenyl)-1H-imidazol-4-yl)amino)thieno[3,2-d]pyrimidin-4-yl)pyrrolidine-2-carboxamide], the IC50 lay within 0.1 to 1 µM.
